In EP0961591B1, “METHOD TO ENHANCE TISSUE AC[…] RADIOLABELED COMPOUNDS” (BOARD OF SUPERVISORS OF LOUISIANA STATE UNIVERSITY AND …, priority 1997, dated 1999):
“And” between values parts separate entries of the source, which are not always exact repeats. Equal entries are not always repeated.

Columns and labels:
[1] = system: DNA of IMR-32 cells; assay: Binding to nuclear DNA (DNA extraction, gamma counting); format: cell-based, human; conditions: for Radioligand (CPM ± SD), Non-Decay Corrected: 100 µg DNA, IMR-32 (SST-2 positive); for % Specifically Bound / CPM Specifically Bound (Difference), Non-Decay Corrected / Radioligand (CPM ± SD), Decay Corrected Values / SPM Specifically Bound (Difference), Decay Corrected Values / Radioligand + Unlabeled Ligand (CPM ± SD), Decay Corrected Values / Radioligand + Unlabeled Ligand (CPM ± SD), Non-Decay Corrected: IMR-32 DNA; for Radioligand + Unlabeled Ligand (CPM ± SD), Decay Corrected Values / Radioligand + Unlabeled Ligand (CPM ± SD), Non-Decay Corrected: + octreotide acetate
Procedure: (§1) Cells were removed from the culture surface using a sterile rubber policeman. The suspended cells were washed three times in cold Dulbecco's phosphate buffered saline and processed through a DNA extraction procedure according to the vendor's directions (GenomicPrep® cells and Tissue DNA Isolation Kit, Pharmacia Biotech, Piscataway, NJ). The cells were incubated in the Cell Lysis Solution of the DNA isolation kit at 37°C for 10 minutes. Next, 3 µl of the Rnase Solution was added to the cell lysate, followed by thorough mixing and incubation at 37°C for 1 hour. The samples were cooled to room temperature, and 200 µl of the Protein Precipitation Solution were added. Following vortexing, the contents of each tube were centrifuged at 14,000 x g for 1 min, and the DNA pellet was washed with 70% ethanol. Following drying the DNA was hydrated in a DNA Hydration Solution, and the concentration of DNA determined by spectrometry at 260 nm. One hundred microgram (100 µg) quantities of each treatment were transferred to radioactive counting vials, and the amount of radioactivity associated with each was measured in a Beckman 5500 gamma counter. The data, as presented in Table 6, were obtained as counts per minute (cpm). The differences between radioactivity measured in cells incubated solely with radioligand and in cells incubated with both radioligand and unlabeled ligand were statistically analyzed using ANOVA.
(§2) Additionally, the DNA from each flask was divided in half, and 1 mg of DNA from each flask was treated with proteinase-K (Lite Technologies, Gaithersburg, MD) for 1 hour at 37°C. The enzyme-treated DNA was then reprecipitated with ethanol and sodium acetate, washed with cold ethanol, and redissolved in DNA hydration solution. The concentration was determined by spectrophotometry at 260 nm. One hundred microgram (100 µg) of protease-treated DNA and an equal quantity of untreated DNA were transferred to radioactive counting vials and the amount of radioactivity measured in a Beckman 5500 gamma counter, as described above. The data, as presented in Table 7 and Figure 13, were obtained as counts per minute (cpm).

[2] = system: DNA of SKNSH cells; assay: as above; format: cell-based, human; conditions: for Radioligand (CPM ± SD), Non-Decay Corrected: 100 µg DNA, SKNSH (SST-2 negative); for % Specifically Bound / CPM Specifically Bound (Difference), Non-Decay Corrected / Radioligand + Unlabeled Ligand (CPM ± SD), Non-Decay Corrected: SKNSH DNA; for Radioligand + Unlabeled Ligand (CPM ± SD), Non-Decay Corrected: + octreotide acetate
Procedure: as §1, §2

[3] = system: IMR-32; assay: Peptide binding and internalization assay; parameters: species or system human
Procedure: (§3) Cell lines were obtained from the ATCC (IMR-32 and SKNSH) or from Ohio State University (Columbus, Ohio) (SK-R2). All cells lines were maintained in 5% CO2 at 37°C in media defined by the suppliers of the cell lines.
(§4) Cells were harvested, counted with a hemocytometer, and resuspended in binding buffer (Minimum Essential Medium (MEM), 10 mM Hepes, 0.01% BSA). A standard assay used 500,000 cells in 1 ml of binding buffer. Radioactive ligand alone (500,000 cpm), or in combination with at least 1,000-fold molar excess (10^-6 M) non-radioactive compound (to calculate specific binding), was added to a final volume of 1 ml. At the termination of the experiment, the incubation medium was removed, the cells were rinsed twice with Hanks balanced salt solution (HBSS), and the radioactivity in the cells determined using a gamma counter. This level of radioactivity represents total binding, which includes both membrane-bound and internalized fractions. Specific binding was determined by calculating the difference in the levels of measured radioactivity without the unlabeled competitor minus the radioactivity with the unlabeled competitor.
(§5) To differentiate between membrane and intracellular binding, cells were subsequently incubated for 10 min at 4°C with acidified HBSS (pH=4-5), rinsed in HBSS, and the radioactivity again determined using the gamma counter. Since the acid wash preferentially released the radioactive ligand from the external surface of the cell, remaining radioactivity was attributed to internalized fractions. Membrane-associated binding was then calculated as the difference between the total binding and internalized fractions.
The times for ligand binding and internalization were analyzed using the standard assay methods described above. […] The first series of experiments used IMR-32 cells that were exposed to a radioligand for varying periods of time (up to 72 hr). The incubation media was replaced at least every 48 hr.
(§6) The assay methods were as described in Example 2.

[4] = system: SK-R2; assay: Peptide binding and internalization assay; parameters: species or system human
Procedure: as §3, §4, §5, §6

[5] = 100µg DNA, mean of three experiments
[6] = 100µg DNA, proteinase-K, mean of three experiments
[7] = 100µg DNA, single replicate experiments
[8] = IMR-32, competitor octreotide acetate
[9] = IMR-32 cells exposed to radioligand up to 72 hr
[10] = SKR-2, competitor octreotide acetate

(^111In-DTPA-D-Phe^1)-octreotide [^111In-pentetreotide]
Radioligand (CPM ± SD), Non-Decay Corrected ([1]; 30 mins): 128 ± 28 CPM | Radioligand (CPM ± SD), Non-Decay Corrected ([1]; 60 mins): 152 ± 165 CPM | Radioligand (CPM ± SD), Non-Decay Corrected ([1]; 180 mins): 291 ± 44 CPM | Radioligand (CPM ± SD), Non-Decay Corrected ([1]; 1440 mins): 264 ± 104 CPM | Radioligand (CPM ± SD), Non-Decay Corrected ([1]; 2880 mins): 624 ± 59 CPM | Binding to Cellular DNA, IMR-32 CELLS Untreated (CPM), Mean + S.D. [1, 5]: 12,066 ± 2273 CPM | Binding to Cellular DNA, IMR-32 CELLS Protease Treated (CPM) ([1]; 100µg DNA, proteinase-K 1 hour 37°C, single replicate experiments): 10,276 CPM and 9.564 CPM and 12,648 CPM | Binding to Cellular DNA, IMR-32 CELLS Protease Treated (CPM), Mean + S.D. [1, 6]: 10,829 ± 1614 CPM | Binding to Cellular DNA, IMR-32 CELLS Untreated (CPM) [1, 7]: 11,512 CPM and 10,122 CPM and 14,566 CPM | total bound CPM removed by the protease treatment ([1]; DNA of IMR-32 cells, proteinase-K): 10-13% | % Specifically Bound ([1]; 30 mins): 35% | CPM Specifically Bound (Difference), Non-Decay Corrected ([1]; 30 mins): 45 CPM | Radioligand (CPM ± SD), Decay Corrected Values ([1]; 30 mins): 128 ± 28 CPM | SPM Specifically Bound (Difference), Decay Corrected Values ([1]; 30 mins): 45 CPM | % Specifically Bound ([1]; 60 mins): 45% | CPM Specifically Bound (Difference), Non-Decay Corrected ([1]; 60 mins): 69 CPM | Radioligand (CPM ± SD), Decay Corrected Values ([1]; 60 mins): 157 ± 165 CPM | SPM Specifically Bound (Difference), Decay Corrected Values ([1]; 60 mins): 69 CPM | % Specifically Bound ([1]; 180 mins): 43% | CPM Specifically Bound (Difference), Non-Decay Corrected ([1]; 180 mins): 126 CPM | Radioligand (CPM ± SD), Decay Corrected Values ([1]; 180 mins): 291 ± 44 CPM | SPM Specifically Bound (Difference), Decay Corrected Values ([1]; 180 mins): 126 CPM | % Specifically Bound ([1]; 1440 mins): 67% | CPM Specifically Bound (Difference), Non-Decay Corrected ([1]; 1440 mins): 177 CPM | Radioligand (CPM ± SD), Decay Corrected Values ([1]; 1440 mins): 338 ± 133 CPM | SPM Specifically Bound (Difference), Decay Corrected Values ([1]; 1440 mins): 226 CPM | % Specifically Bound ([1]; 2880 mins): 67% | CPM Specifically Bound (Difference), Non-Decay Corrected ([1]; 2880 mins): 421 CPM | Radioligand (CPM ± SD), Decay Corrected Values ([1]; 2880 mins): 1023 ± 97 CPM | SPM Specifically Bound (Difference), Decay Corrected Values ([1]; 2880 mins): 690 CPM | Radioligand + Unlabeled Ligand (CPM ± SD), Decay Corrected Values ([1]; 30 mins): 83 ± 12 CPM | Radioligand + Unlabeled Ligand (CPM ± SD), Non-Decay Corrected ([1]; 30 mins): 83 ± 12 CPM | Radioligand + Unlabeled Ligand (CPM ± SD), Decay Corrected Values ([1]; 60 mins): 83 ± 1 CPM | Radioligand + Unlabeled Ligand (CPM ± SD), Non-Decay Corrected ([1]; 60 mins): 83 ± 1 CPM | Radioligand + Unlabeled Ligand (CPM ± SD), Decay Corrected Values ([1]; 180 mins): 165 ± 15 CPM | Radioligand + Unlabeled Ligand (CPM ± SD), Non-Decay Corrected ([1]; 180 mins): 165 ± 15 CPM | Radioligand + Unlabeled Ligand (CPM ± SD), Decay Corrected Values ([1]; 1440 mins): 112 ± 8 CPM | Radioligand + Unlabeled Ligand (CPM ± SD), Non-Decay Corrected ([1]; 1440 mins): 87 ± 6 CPM | Radioligand + Unlabeled Ligand (CPM ± SD), Decay Corrected Values ([1]; 2880 mins): 332 ± 33 CPM | Radioligand + Unlabeled Ligand (CPM ± SD), Non-Decay Corrected ([1]; 2880 mins): 203 ± 20 CPM | Radioligand (CPM ± SD), Non-Decay Corrected ([2]; 60 minutes): 85 ± 8 CPM | Radioligand (CPM ± SD), Non-Decay Corrected ([2]; 4320 minutes): 232 ± 10 CPM | Radioligand (CPM ± SD), Non-Decay Corrected ([2]; […]): 87 ± 1 CPM | Binding to Cellular DNA, SKNSH CELLS Untreated (CPM), Mean + S.D. [2, 5]: 285 ± 56 CPM | Binding to Cellular DNA, SKNSH CELLS Protease Treated (CPM), Mean + S.D. [2, 6]: 247 ± 149 CPM | Binding to Cellular DNA, SKNSH CELLS Untreated (CPM) [2, 7]: 316 CPM and 319 CPM | % Specifically Bound ([2]; 60 minutes): 0% | CPM Specifically Bound (Difference), Non-Decay Corrected ([2]; 60 minutes): -6 CPM | CPM Specifically Bound (Difference), Non-Decay Corrected ([2]; 4320 minutes): +58 CPM | Radioligand + Unlabeled Ligand (CPM ± SD), Non-Decay Corrected ([2]; 60 minutes): 91 ± 25 CPM | Radioligand + Unlabeled Ligand (CPM ± SD), Non-Decay Corrected ([2]; 4320 minutes): 174 ± 41 CPM | % Specifically Bound ([2]; […]): 8% | CPM Specifically Bound (Difference), Non-Decay Corrected ([2]; […]): +7 CPM | Total Binding (CPM ± SD), MEMBRANE ([3]; IMR-32, 1 CPM/cell): 2,373 ± 417 CPM | Total Binding (CPM ± SD), TOTAL ([3]; IMR-32, 1 CPM/cell): 4,780 ± 928 CPM | Total Binding (CPM ± SD), INTRACELLULAR ([3]; IMR-32, 1 CPM/cell, after acid wash): 2,408 ± 51 CPM | Kd ([3]; IMR-32, Scatchard plot analysis, read-out: Kd (apparent dissociation constant)): 4 nM | Specific Binding (CPM), INTRACELLULAR [3, 8]: 1.536 CPM | Specific Binding (CPM), MEMBRANE [3, 8]: 2,372 CPM | Specific Binding (CPM), TOTAL [3, 8]: 3,908 CPM | fractions of total radioactivity incorporated into the cell [3, 9]: 40-75% | time of maximal binding [3, 9]: 48 to 72 h | binding associated with the plasma membrane ([4]; SK-R2 cell line): 95% | Total Binding (CPM ± SD), MEMBRANE ([4]; SKR-2, 1 CPM/cell): 33,655 ± 2,728 CPM | Total Binding (CPM ± SD), TOTAL ([4]; SKR-2, 1 CPM/cell): 36,261 ± 2,085 CPM | Total Binding (CPM ± SD), INTRACELLULAR ([4]; SKR-2, 1 CPM/cell, after acid wash): 2,607 ± 672 CPM | Kd ([4]; SKR-2, Scatchard plot analysis, read-out: Kd (apparent dissociation constant)): 1 nM | Specific Binding (CPM), INTRACELLULAR [4, 10]: 1,792 CPM | Specific Binding (CPM), MEMBRANE [4, 10]: 33,683 CPM | Specific Binding (CPM), TOTAL [4, 10]: 35,475 CPM
